The values below come from patent US20050197350A1, “Novel quinoline, tetrahydroquinazoline, and pyrimidine derivatives and methods of treatment related to the use thereof” (TAISHO PHARMACEUTICAL CO., LTD., priority 2003, published 2005).

The test system of this assay is MCH receptors. Briefly: MCH receptor activity class (method not given). The following applies: class by percent of control at 10^-7 M or IC50.

Structures are written as SMILES.

As to `CN(C)c1ccnc(N[C@H]2CC[C@@H](NC(=O)Nc3c(Cl)cc(Cl)cc3Cl)CC2)n1` [compound 2189, N-(cis-4-{[4-(dimethylamino)pyrimidin-2-yl]amino}cyclohexyl)-N′-(2,4,6-trichlorophenyl)urea], the class is on record as 1 (Class 1: The value of percent of control at 10^−7 M was less than 40% or the value of IC50 was less than 50 nM.). `CN(C)c1ccnc(N[C@H]2CC[C@@H](NC(=O)Nc3c(F)cc(Br)cc3Br)CC2)n1` [compound 2191, N-(2,4-dibromo-6-fluorophenyl)-N′-(cis-4-{[4-(dimethylamino)pyrimidin-2-yl]amino}cyclohexyl)urea]: the class was 1 (Class 1: The value of percent of control at 10^−7 M was less than 40% or the value of IC50 was less than 50 nM.). Turning to `CCc1cccc(CC)c1NC(=O)N[C@H]1CC[C@@H](Nc2nccc(N(C)C)n2)CC1` [compound 2192], the class was 3 (Class 3 The value of percent of control at 10^−7 M was more than 60% or the value of IC50 was more than 200 nM.). Take `CN(C)c1ccnc(N[C@H]2CC[C@@H](NC(=O)Nc3c(Cl)cccc3C(F)(F)F)CC2)n1` [compound 2193]: the class is 3 (Class 3 The value of percent of control at 10^−7 M was more than 60% or the value of IC50 was more than 200 nM.). As to `Cc1cccc(Cl)c1NC(=O)N[C@H]1CC[C@@H](Nc2nccc(N(C)C)n2)CC1` [compound 2194], the class is on record as 3 (Class 3 The value of percent of control at 10^−7 M was more than 60% or the value of IC50 was more than 200 nM.). For `CN(C)c1ccnc(N[C@H]2CC[C@@H](NC(=O)NCc3ccccc3Cl)CC2)n1` [compound 2195] the value was 3 (Class 3 The value of percent of control at 10^−7 M was more than 60% or the value of IC50 was more than 200 nM.); for `CCc1cccc(C(C)C)c1NC(=O)N[C@H]1CC[C@@H](Nc2nccc(N(C)C)n2)CC1` [compound 2196], 3 (Class 3 The value of percent of control at 10^−7 M was more than 60% or the value of IC50 was more than 200 nM.). In the case of `CCc1ccccc1NC(=O)N[C@H]1CC[C@@H](Nc2nccc(N(C)C)n2)CC1` [compound 2197] it was 3 (Class 3 The value of percent of control at 10^−7 M was more than 60% or the value of IC50 was more than 200 nM.); in that of `CN(C)c1ccnc(N[C@H]2CC[C@@H](NC(=O)Nc3ccccc3I)CC2)n1` [compound 2198], 3 (Class 3 The value of percent of control at 10^−7 M was more than 60% or the value of IC50 was more than 200 nM.).

As for `Cc1cccc(C(C)C)c1NC(=O)N[C@H]1CC[C@@H](Nc2nccc(N(C)C)n2)CC1` [compound 2199], the class is given as 3 (Class 3 The value of percent of control at 10^−7 M was more than 60% or the value of IC50 was more than 200 nM.). In the case of `CC(C)c1ccccc1NC(=O)N[C@H]1CC[C@@H](Nc2nccc(N(C)C)n2)CC1` [compound 2200], the class is recorded as 3 (Class 3 The value of percent of control at 10^−7 M was more than 60% or the value of IC50 was more than 200 nM.). In the case of `Cc1c(NC(=O)N[C@H]2CC[C@@H](Nc3nccc(N(C)C)n3)CC2)cccc1[N+](=O)[O-]` [compound 2201], the class is listed as 3 (Class 3 The value of percent of control at 10^−7 M was more than 60% or the value of IC50 was more than 200 nM.).

Regarding `CCCc1ccccc1NC(=O)N[C@H]1CC[C@@H](Nc2nccc(N(C)C)n2)CC1` [compound 2202], the class is reported as 3 (Class 3 The value of percent of control at 10^−7 M was more than 60% or the value of IC50 was more than 200 nM.). For the compound `Cc1cccc(C(C)(C)C)c1NC(=O)N[C@H]1CC[C@@H](Nc2nccc(N(C)C)n2)CC1` [compound 2203], the class is 3 (Class 3 The value of percent of control at 10^−7 M was more than 60% or the value of IC50 was more than 200 nM.). With `CN(C)c1ccnc(N[C@H]2CC[C@@H](NC(=O)Nc3ccccc3C(C)(C)C)CC2)n1` [compound 2204], the class is listed as 3 (Class 3 The value of percent of control at 10^−7 M was more than 60% or the value of IC50 was more than 200 nM.). In the case of `Cc1c(Cl)cccc1NC(=O)N[C@H]1CC[C@@H](Nc2nccc(N(C)C)n2)CC1` [compound 2205], the class is on record as 3 (Class 3 The value of percent of control at 10^−7 M was more than 60% or the value of IC50 was more than 200 nM.). For `CN(C)c1ccnc(N[C@H]2CC[C@@H](NC(=O)Nc3c(F)cc(Br)cc3F)CC2)n1` [compound 2206], the class is recorded as 3 (Class 3 The value of percent of control at 10^−7 M was more than 60% or the value of IC50 was more than 200 nM.). As to `CN(C)c1ccnc(N[C@H]2CC[C@@H](NC(=O)Nc3ccc(Cl)cc3C(F)(F)F)CC2)n1` [compound 2207], the class is recorded as 3 (Class 3 The value of percent of control at 10^−7 M was more than 60% or the value of IC50 was more than 200 nM.).

In the case of `CN(C)c1ccnc(N[C@H]2CC[C@@H](NC(=O)Nc3ccc(C#N)cc3)CC2)n1` [compound 2208], the class is 3 (Class 3 The value of percent of control at 10^−7 M was more than 60% or the value of IC50 was more than 200 nM.).

Turning to `CN(C)c1ccnc(N[C@H]2CC[C@@H](NC(=O)NC(c3ccccc3)c3ccccc3)CC2)n1` [compound 2209, N-(cis-4-{[4-(dimethylamino)pyrimidin-2-yl]amino}cyclohexyl)-N′-(diphenylmethyl)urea], the class is on record as 1 (Class 1: The value of percent of control at 10^−7 M was less than 40% or the value of IC50 was less than 50 nM.). In the case of `Cc1cc(Br)cc(C)c1NC(=O)N[C@H]1CC[C@@H](Nc2nccc(N(C)C)n2)CC1` [compound 2210, N-(4-bromo-2,6-dimethylphenyl)-N′-(cis-4-{[4-(dimethylamino)pyrimidin-2-yl]amino}cyclohexyl)urea] it was 1 (Class 1: The value of percent of control at 10^−7 M was less than 40% or the value of IC50 was less than 50 nM.); in that of `Cc1noc(-c2ccccc2)c1NC(=O)N[C@H]1CC[C@@H](Nc2nccc(N(C)C)n2)CC1` [compound 2211], 3 (Class 3 The value of percent of control at 10^−7 M was more than 60% or the value of IC50 was more than 200 nM.); in that of `Cc1cc(NC(=O)N[C@H]2CC[C@@H](Nc3nccc(N(C)C)n3)CC2)c(C(F)(F)F)o1` [compound 2212], 3 (Class 3 The value of percent of control at 10^−7 M was more than 60% or the value of IC50 was more than 200 nM.).

Turning to `CN(C)c1ccnc(N[C@H]2CC[C@@H](NC(=O)Nc3ccccc3Br)CC2)n1` [compound 2213], the class is reported as 3 (Class 3 The value of percent of control at 10^−7 M was more than 60% or the value of IC50 was more than 200 nM.). For `CN(C)c1ccnc(N[C@H]2CC[C@@H](NC(=O)Nc3ccccc3-c3ccccc3)CC2)n1` [compound 2214] the value was 3 (Class 3 The value of percent of control at 10^−7 M was more than 60% or the value of IC50 was more than 200 nM.). In the case of `CCCCNC(=O)N[C@H]1CC[C@@H](Nc2nccc(N(C)C)n2)CC1` [compound 2215] it was 3 (Class 3 The value of percent of control at 10^−7 M was more than 60% or the value of IC50 was more than 200 nM.); in that of `Cc1cccc(NC(=O)N[C@H]2CC[C@@H](Nc3nccc(N(C)C)n3)CC2)c1C` [compound 2216], 3 (Class 3 The value of percent of control at 10^−7 M was more than 60% or the value of IC50 was more than 200 nM.); in that of `CCOC(=O)c1cccc(NC(=O)N[C@H]2CC[C@@H](Nc3nccc(N(C)C)n3)CC2)c1` [compound 2217], 3 (Class 3 The value of percent of control at 10^−7 M was more than 60% or the value of IC50 was more than 200 nM.).
